Source: patent US11007250B2, “Methods and kits for treating pain” (Duke University, priority 2017, dated 2021)

What was measured:
mice = experiment: Tail-flick and hot-plate tests of morphine antinociception; assay type: in vivo, mouse; details: morphine 10 mg/kg s.c.
Procedure: Tail-flick test. All animals were habituated to testing environment for at least 2 days before baseline testing. Mice were gently held by a hand with a terry glove and with tails exposed. The distal 3 cm of the tail was immersed into the 50° C. hot water. The tail-flick latency was the time required for a mouse to flick or remove its tail out of the water. A maximum cut-off value of 15 seconds was set to avoid thermal injury. Tail-flick latency was determined both before and after drug injection. Data are expressed as the maximum possible effect (MPE) calculated as MPE (%)=100×[(postdrug response baseline response)/(cutoff response−baseline response)]. The MPE (%) data from each animal were converted to area under the curve (AUC).
Hot-plate test. All animals were habituated to testing environment for at least 2 days before baseline testing. […] A maximum cut-off value of 40 seconds was set to avoid tissue injury. Data are expressed as the maximum possible effect (MPE) calculated as MPE (%)=100×[(postdrug response−baseline response)/(cutoff response−baseline response)]. The MPE (%) data from each animal were converted to area under the curve (AUC).

naive mice = experiment: Basal pain in naive mice (von Frey test, spontaneous pain); assay type: in vivo, mouse
[1] = test system: small-diameter neurons of whole-mount DRG; experiment: Whole-cell patch clamp recordings in whole mount DRGs ex vivo; assay type: cell-based, mouse; details: WT whole mount DRG; sPD-1 30 ng/ml, Nivolumab 300 ng/ml
Procedure: Whole-cell patch clamp recordings in whole mount DRGs of mice ex vivo. L4-L5 DRGs were carefully removed 4 days after sham surgery or CCI surgery and placed in cold oxygenated ACSF. The connective tissue was gently removed under a microscope and the ganglia were digested with a mixture of 0.4 mg/mL trypsin (Sigma) and 1.0 mg/ml type-A collagenase (Sigma) for 30 min at 37° C. The intact ganglia were then incubated in ACSF oxygenated with 95% O2 and 5% CO2 at 28° C. for at least 1 h before transferring them to the recording chamber. DRG neurons were visualized with a 40× water-immersion objective using a BX51WI microscope (Olympus). Whole-cell current and voltage recordings were acquired with an Axon700B amplifier. Patch pipettes (4-7 MO) were pulled from borosilicate glass capillaries on P-97 puller. The recording chamber (300 μl) was continuously superfused (3-4 ml/min). Series resistance was compensated for (>80%), and leak subtraction was performed. The pipette solution contained (in mM): 140 KCl, 2 MgCl2, 10 Hepes, 2 Mg-ATP, pH 7.4. Osmolarity was adjusted to 290-300 mOsm. Data was acquired with a Digidata 1322A acquisition system (molecular devices) using pCLAMP 9.0 software. Signals were low-pass filtered at 5 kHz, sampled at 10 kHz and analyzed offline.

[2] = test system: lamina 110 neurons in spinal cord slices; experiment: Patch clamp recordings of sEPSCs in spinal cord slices; assay type: cell-based, mouse; details: PD-L1 30 ng/ml, sPD-1 30 ng/ml perfusion; Nivolumab 300 ng/ml, 3 h
melanoma-bearing mice = experiment: Mouse melanoma model: spontaneous pain, von Frey test, CPP; assay type: in vivo; details: for spontaneous pain (licking/flinching) in melanoma-bearing mice: SSG 5 μg i.pl.
[3] = test system: T cell, macrophage and inflammatory cytokine marker mRNA; experiment: Quantitative real-time RT-PCR of immune markers in melanoma-bearing hindpaw skin; details: 3 h after sPD-1 treatment (5 μg, i.pl.), MCI-4w
[4] = test system: dissociated small-diameter mouse DRG neurons; experiment: Whole-cell patch clamp recordings in dissociated mouse DRG neurons; assay type: cell-based; details: SSG 11 μM
Procedure: Whole-cell patch clamp recordings in dissociated mouse DRG neuron. DRGs were aseptically removed from 4-7 week-old mice and digested with collagenase (0.2 mg/ml, Roche)/dispase-II (3 mg/ml, Roche) for 120 min. Cells were placed on glass cover slips coated with poly-D-lysine and grown in a neurobasal defined medium (10% fetal bovine serum and 2% B27 supplement) at 37° C. with 5% CO2/95% air for 24 h before experiments. Whole-cell voltage clamp recordings were performed at room temperature to measure transient sodium currents and action potentials, respectively, with an EPC10 amplifier (HEKA) and an Axopatch-200B amplifier with a Digidata 1440A (Axon Instruments) (Xu, Z Z, et al. 2015). The patch pipettes were pulled from borosilicate capillaries (Chase Scientific Glass Inc.). When filled with the pipette solution, the resistance of the pipettes was 4-5 MQ. The recording chamber (300 μl) was continuously superfused (3-4 ml/min). Series resistance was compensated for (>80%), and leak subtraction was performed. Data were low-pass-filtered at 2 KHz, sampled at 10 KHz. The pClamp10 (Axon Instruments) software was used during experiments and analysis. For sodium current recording, pipette solution contained (in mM): CsCl 130, NaCl 9, MgCl2 1, EGTA 10, HEPES 10, adjusted to pH 7.4 with CsOH. […] RMP was measured without a current injection.

[5] = test system: phosphorylation of SHP-1 (pSHP-1); experiment: pSHP-1 immunostaining in mouse DRG neurons; assay type: cell-based; details: dissociated DRG neurons; PD-L1 10 ng/ml, SSG 11 μM
[6] = test system: TREK2 in CHO cells co-expressing PD-1 and TREK2; experiment: Patch clamp recordings in transfected CHO cells; assay type: cell-based; details: SSG
Procedure: CHO cell culture, transfection and electrophysiology. CHO cell line was purchased from Duke Cell Culture Facility. Cells were cultured in high glucose (4.5 g/L) Dulbecco's Modified Eagle's Medium containing 10% (v/v) fetal bovine serum (Gibco). Transfection (1 μg cDNA) was performed with Lipofectamine™ 2000 Reagent (Invitrogen) at 70% confluency and the transfected cells were cultured in the same growth medium for 48 h before electrophysiological and biochemical studies. PD1/PDCD1 cDNA construct (SC117011, NM_005018) and TREK2/KCNK10 cDNA construct (SC110477, NM_021161) were purchased from Origene Technologies.
Whole-cell patch clamp recordings in transfected CHO cells were conducted at room temperature using patch pipettes with resistances of 5-6 MD. The recording chamber was continuously superfused (3-4 ml/min). The data were acquired at a rate of 10 kHz and filtered at 3 kHz using an EPC-10 amplifier (HEKA, Germany). Pipette solution contained (in mM): K-gluconate 126, NaCl 10, MgCl2 1, EGTA 10, NaATP 2, and MgGTP 0.1, adjusted to pH 7.3 with KOH. The external solution was composed of (in mM): NaCl 140, KCl 5, CaCl2 2, MgCl2 1, HEPES 10, glucose 10, adjusted to pH 7.4 with NaOH. […] In current-clamp experiments, the resting membrane potential was measured without any membrane potential compensation.

[7] = test system: small-diameter human DRG neurons; experiment: Patch clamp recordings in dissociated human DRG neurons; assay type: cell-based; details: SSG 11 μM
Procedure: Primary cultures and patch clam recordings in human DRG neurons. Non-diseased human DRGs were obtained from donors through NDRI with permission of exemption from Duke IRB. Postmortem L3-L5 DRGs were dissected from 5 male donors at the age of 27, 31, 43, 54, and 67 and delivered in ice-cold culture medium to the laboratory at Duke University within 24-72 hours of death. Upon the delivery, DRGs were rapidly dissected from nerve roots and minced in a calcium-free HBSS (Gibco). Human DRG cultures were prepared as previously reported (Xu, Z Z, et al. 2015). DRGs were digested at 37° C. in humidified O2 incubator for 120 min with collagenase Type II (Worthington, 285 units/mg, 12 mg/ml final concentration) and dispase II (Roche, 1 unit/mg, 20 mg/ml) in PBS with 10 mM HEPES, pH adjusted to 7.4 with NaOH. DRGs were mechanically dissociated using fire-polished pipettes, filtered through a […] nylon mesh and centrifuged (500×g for 5 min). The pellet was resuspended, plated on 0.5 mg/ml poly-D-lysine-coated glass coverslips, and cells were grown in Neurobasal medium supplemented with 10% FBS, 2% B-27 supplement, 1% N-2 supplement, and 1% penicillin/streptomycin. Whole-cell patch clamp recordings in small-diameter DRG neurons (<55 μm) were conducted at room temperature using patch pipettes with resistances of 2-3 MD. […] The resting membrane potential was measured without a current injection.

[8] = i.pl., sPD-1 5 μg, RMP1-14 5 μg, Nivolumab 10 μg
[9] = MCI-4w, sPD-1 5 μg i.pl., siRNA 2 μg peri-sciatic, Nivolumab 3-10 mg/kg i.v., RMP1-14 10 mg/kg i.v.

| Compound | analgesic effect of morphine after human IgG (mice; human IgG i.v.) | analgesic effect of morphine in Pd1−/− mice compared to WT (mice) | duration of mechanical allodynia in naive mice (naive mice; [8]) | mechanical allodynia in naive mice (naive mice; [8]) | spontaneous pain in naive mice (naive mice; sPD-1 5 μg i.pl.) | firing rate of action potentials [1] | amplitude of spontaneous EPSCs (sEPSCs) [2] | frequency of spontaneous EPSCs (sEPSCs) [2] | mechanical allodynia in melanoma-bearing mice (melanoma-bearing mice; [9]) | spontaneous pain (licking/flinching) in melanoma-bearing mice (melanoma-bearing mice; [9]) | conditioned place preference (CPP), ongoing pain (melanoma-bearing mice; i.pl. sPD-1, two-chamber test) | onset of spontaneous pain after injection (melanoma-bearing mice; sPD-1 5 μg i.pl., MCI-4w) | mRNA levels of immune/inflammatory markers in hindpaw skin [3] | effect on analgesic effect of PD-L1 (naive mice; i.pl. SSG plus PD-L1, naive mice) | effect on PD-L1-induced inhibition of sodium currents [4] | effect on PD-L1-induced SHP-1 phosphorylation [5] | effect on PD-L1-induced RMP change ([6]; CHO cells co-expressing PD-1 and TREK2) | effect on PD-L1 potentiation of TREK2 currents and Erev shift ([6]; PD-1/TREK2 co-expressing CHO cells) | effect on PD-L1-induced inhibition of sodium currents [7] |
| --- | --- | --- | --- | --- | --- | --- | --- | --- | --- | --- | --- | --- | --- | --- | --- | --- | --- | --- | --- |
| CN1CC[C@]23c4c5ccc(O)c4O[C@H]2[C@@H](O)C=C[C@H]3[C@H]1C5 [morphine] | typical analgesic effect | reduced analgesic (antinociceptive) effect |  |  |  |  |  |  |  |  |  |  |  |  |  |  |  |  |  |
| sPD-1: soluble PD-1 used to neutralize PD-L1; Mouse PD-1 from R&D (1021-PD-100) |  |  | 3 h | transient mechanical allodynia | without causing spontaneous pain | increased the firing rate | not amplitude | increased sEPSC frequency | induced mechanical allodynia | marked spontaneous pain | marked CPP | 10 to 30 min | did not alter |  |  |  |  |  |  |
| O.O.O.O.O.O.O.O.O.O=C([O-])[C@@H]1[O][Sb]2([O-])([O][Sb]34([OH])[O][C@H]([C@H](O)CO)[C@H]([O]3)[C@H](C(=O)[O-])[O]4)[O][C@H]([C@H](O)CO)[C@@H]1[O]2.[Na+].[Na+].[Na+] [SSG, sodium stibogluconate] |  |  |  |  |  |  |  |  |  | elicited spontaneous pain |  |  |  | abolished | partially blocked | blocked | blocked | abolished | completely blocked |
